Laboratory results taken from ChEMBL document CHEMBL5126546, “Advancements in the development of multi-target directed ligands for the treatment of Alzheimer's disease” (Bioorg Med Chem, 2022).
Blank lines part the entries; values can stand above or below the molecule they belong to.

What was measured:
[1] = target: Fatty-acid amide hydrolase 1 (Homo sapiens, UniProt O00519); experiment: Inhibition of FAAH (unknown origin) using 7-amino-4-methylcoumarin-arachidonamide as substrate preincubated for 5 mins followed by substrate addition and measured after 30 mins by fluorescence based assay
[2] = target: T1, Acetylcholinesterase (Electrophorus electricus, UniProt O42275); experiment: Inhibition of Electrophorus electricus AchE using acetylthiocholine iodide as substrate preincubated for 15 mins followed by substrate addition and measured for 6 mins by DTNB reagent based Ellman's method
T1 sequence (O42275 whole entry): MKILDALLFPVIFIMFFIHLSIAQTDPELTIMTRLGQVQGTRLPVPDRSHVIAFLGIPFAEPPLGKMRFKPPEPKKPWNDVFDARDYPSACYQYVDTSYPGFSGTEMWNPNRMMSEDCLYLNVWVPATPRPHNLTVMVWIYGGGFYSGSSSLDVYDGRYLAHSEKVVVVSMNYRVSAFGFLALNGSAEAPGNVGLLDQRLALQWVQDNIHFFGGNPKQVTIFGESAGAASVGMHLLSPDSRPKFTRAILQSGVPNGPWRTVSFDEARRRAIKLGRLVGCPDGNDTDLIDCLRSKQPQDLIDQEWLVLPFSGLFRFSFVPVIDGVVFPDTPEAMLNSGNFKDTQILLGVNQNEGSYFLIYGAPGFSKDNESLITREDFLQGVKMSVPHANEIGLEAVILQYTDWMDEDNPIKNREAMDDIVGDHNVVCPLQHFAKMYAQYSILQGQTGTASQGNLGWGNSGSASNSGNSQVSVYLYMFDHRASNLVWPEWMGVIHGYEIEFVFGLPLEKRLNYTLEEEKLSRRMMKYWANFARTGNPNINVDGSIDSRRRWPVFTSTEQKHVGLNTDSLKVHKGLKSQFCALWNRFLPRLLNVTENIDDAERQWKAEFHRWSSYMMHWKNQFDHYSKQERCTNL

[3] = target: T2, Amyloid-beta precursor protein (Homo sapiens, UniProt P05067); experiment: Inhibition of amyloid beta (1 to 42) (unknown origin) self aggregation at 100 uM and measured after 24 hrs by Thioflavin T based fluorometric assay
T2 sequence (P05067 whole entry): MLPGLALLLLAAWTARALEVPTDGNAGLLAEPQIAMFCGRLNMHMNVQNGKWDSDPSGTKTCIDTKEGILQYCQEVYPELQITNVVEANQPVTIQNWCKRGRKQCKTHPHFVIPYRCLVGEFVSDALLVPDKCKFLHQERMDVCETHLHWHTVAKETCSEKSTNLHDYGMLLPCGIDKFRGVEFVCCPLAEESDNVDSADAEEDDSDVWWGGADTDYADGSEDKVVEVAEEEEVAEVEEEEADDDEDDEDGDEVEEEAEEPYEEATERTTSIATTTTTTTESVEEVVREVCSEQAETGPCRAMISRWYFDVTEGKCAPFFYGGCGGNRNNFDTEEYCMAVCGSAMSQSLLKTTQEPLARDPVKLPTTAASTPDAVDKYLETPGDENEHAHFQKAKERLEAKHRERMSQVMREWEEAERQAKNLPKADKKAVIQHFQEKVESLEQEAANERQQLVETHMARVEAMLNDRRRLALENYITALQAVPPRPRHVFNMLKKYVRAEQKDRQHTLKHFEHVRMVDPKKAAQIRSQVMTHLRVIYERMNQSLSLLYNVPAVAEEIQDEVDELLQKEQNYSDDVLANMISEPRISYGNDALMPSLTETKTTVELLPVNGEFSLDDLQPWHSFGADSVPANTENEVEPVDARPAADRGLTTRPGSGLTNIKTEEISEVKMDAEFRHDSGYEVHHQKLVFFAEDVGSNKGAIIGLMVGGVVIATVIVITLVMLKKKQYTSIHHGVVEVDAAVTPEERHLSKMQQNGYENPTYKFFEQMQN

[4] = target: T2, Amyloid-beta precursor protein; experiment: Inhibition of self induced amyloid beta (1 to 42) (unknown origin) aggregation incubated for 24 hrs by Thioflavin T based fluorometric assay
[5] = target: T1, Acetylcholinesterase; experiment: Inhibition of Electrophorus electricus AchE incubated for 15 mins by Ellman's method
[6] = target: Amine oxidase [flavin-containing] B (Homo sapiens, UniProt P27338); experiment: Inhibition of recombinant human MAO-B assessed as amount of 4-hydroxyquinoline using kynuramine as a substrate incubated for 30 mins by fluorescence spectrophotometry
[7] = target: T3, Cholinesterase (Homo sapiens, UniProt P06276); experiment: Inhibition of BuChE (unknown origin) incubated for 15 mins by Ellman's method
T3 sequence (P06276 whole entry): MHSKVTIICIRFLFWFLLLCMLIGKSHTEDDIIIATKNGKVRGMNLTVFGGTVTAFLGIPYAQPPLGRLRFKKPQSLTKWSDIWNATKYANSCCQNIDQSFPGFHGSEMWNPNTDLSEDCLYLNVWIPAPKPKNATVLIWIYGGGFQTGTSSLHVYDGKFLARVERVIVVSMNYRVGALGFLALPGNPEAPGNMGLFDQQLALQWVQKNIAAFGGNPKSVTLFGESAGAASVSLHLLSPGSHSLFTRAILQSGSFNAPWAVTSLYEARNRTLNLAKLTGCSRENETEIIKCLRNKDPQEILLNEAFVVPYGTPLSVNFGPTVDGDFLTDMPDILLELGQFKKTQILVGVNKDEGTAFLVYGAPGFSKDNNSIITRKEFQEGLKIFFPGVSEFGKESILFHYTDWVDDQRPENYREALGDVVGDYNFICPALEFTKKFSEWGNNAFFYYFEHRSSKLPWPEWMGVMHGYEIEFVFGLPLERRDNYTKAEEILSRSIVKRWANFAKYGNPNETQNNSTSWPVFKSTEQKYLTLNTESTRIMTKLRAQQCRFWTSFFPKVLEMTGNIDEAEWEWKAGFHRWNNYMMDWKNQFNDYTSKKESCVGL

[8] = target: Amine oxidase [flavin-containing] A (Homo sapiens, UniProt P21397); experiment: Inhibition of recombinant human MAO-A assessed as amount of 4-hydroxyquinoline using kynuramine as a substrate incubated for 30 mins by fluorescence spectrophotometry
[9] = Antioxidant activity of compound assessed as trolox equivalent of ORAC radical scavenging activity by ORAC-FL assay; type: functional
[10] = target: 72 kDa type IV collagenase (Homo sapiens, UniProt P08253); experiment: Inhibition of MMP-2 (unknown origin) by Fluorometric analysis
72 kDa type IV collagenase, sequence (P08253 whole entry): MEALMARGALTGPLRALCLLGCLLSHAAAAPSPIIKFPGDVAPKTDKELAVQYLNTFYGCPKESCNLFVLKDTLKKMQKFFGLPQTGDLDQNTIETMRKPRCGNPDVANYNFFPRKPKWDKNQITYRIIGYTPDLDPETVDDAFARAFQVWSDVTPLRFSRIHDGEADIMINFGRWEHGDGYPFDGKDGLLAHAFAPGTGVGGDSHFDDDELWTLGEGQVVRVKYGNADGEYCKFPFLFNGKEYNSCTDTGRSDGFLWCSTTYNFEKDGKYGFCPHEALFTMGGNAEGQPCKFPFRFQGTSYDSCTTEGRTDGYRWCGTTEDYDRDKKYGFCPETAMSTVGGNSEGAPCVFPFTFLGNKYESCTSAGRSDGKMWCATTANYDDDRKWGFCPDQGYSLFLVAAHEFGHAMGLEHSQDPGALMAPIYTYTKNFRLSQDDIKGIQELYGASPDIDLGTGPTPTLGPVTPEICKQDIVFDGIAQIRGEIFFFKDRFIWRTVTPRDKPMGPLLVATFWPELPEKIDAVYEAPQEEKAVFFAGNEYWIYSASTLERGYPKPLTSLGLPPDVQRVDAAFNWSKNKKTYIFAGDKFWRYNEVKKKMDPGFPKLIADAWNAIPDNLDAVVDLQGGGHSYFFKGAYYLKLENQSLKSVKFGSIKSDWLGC

[11] = organism: Homo sapiens; experiment: Selectivity index, ratio of IC50 for inhibition of human AChE to IC50 for inhibition of human BuChE
[12] = target: T2, Amyloid-beta precursor protein; experiment: Inhibition of self-induced amyloid beta (1 to 42) (unknown origin) aggregation by Thioflavin T based fluorometric assay
[13] = target: T4, Acetylcholinesterase (Homo sapiens, UniProt P22303); experiment: Inhibition of human AChE using acetylthiocholine iodide as substrate by Ellman's method
T4 sequence (P22303 whole entry): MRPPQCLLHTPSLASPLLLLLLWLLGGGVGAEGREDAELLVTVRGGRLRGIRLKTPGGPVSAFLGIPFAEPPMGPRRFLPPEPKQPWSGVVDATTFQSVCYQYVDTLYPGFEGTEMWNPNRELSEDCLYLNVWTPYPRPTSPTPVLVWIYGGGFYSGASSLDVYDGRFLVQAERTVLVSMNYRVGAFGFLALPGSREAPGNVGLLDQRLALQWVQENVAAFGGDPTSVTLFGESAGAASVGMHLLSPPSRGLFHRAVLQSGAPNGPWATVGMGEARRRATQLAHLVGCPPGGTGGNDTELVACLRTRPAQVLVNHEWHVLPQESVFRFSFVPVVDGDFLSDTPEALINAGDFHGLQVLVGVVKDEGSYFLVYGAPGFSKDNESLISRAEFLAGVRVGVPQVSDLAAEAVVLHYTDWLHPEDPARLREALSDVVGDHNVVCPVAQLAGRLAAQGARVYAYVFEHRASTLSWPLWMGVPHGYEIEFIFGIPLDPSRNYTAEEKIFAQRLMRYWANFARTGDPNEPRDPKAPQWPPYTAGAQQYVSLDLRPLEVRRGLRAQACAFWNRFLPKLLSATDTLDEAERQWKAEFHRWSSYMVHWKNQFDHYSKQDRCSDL

[14] = target: Glycogen synthase kinase-3 beta (Homo sapiens) (UniProt P49841); experiment: Inhibition of GSK-3beta (unknown origin) at 10 uM by Kinase-GLO reagent based assay
Glycogen synthase kinase-3 beta (Homo sapiens), sequence (P49841 whole entry, looked up): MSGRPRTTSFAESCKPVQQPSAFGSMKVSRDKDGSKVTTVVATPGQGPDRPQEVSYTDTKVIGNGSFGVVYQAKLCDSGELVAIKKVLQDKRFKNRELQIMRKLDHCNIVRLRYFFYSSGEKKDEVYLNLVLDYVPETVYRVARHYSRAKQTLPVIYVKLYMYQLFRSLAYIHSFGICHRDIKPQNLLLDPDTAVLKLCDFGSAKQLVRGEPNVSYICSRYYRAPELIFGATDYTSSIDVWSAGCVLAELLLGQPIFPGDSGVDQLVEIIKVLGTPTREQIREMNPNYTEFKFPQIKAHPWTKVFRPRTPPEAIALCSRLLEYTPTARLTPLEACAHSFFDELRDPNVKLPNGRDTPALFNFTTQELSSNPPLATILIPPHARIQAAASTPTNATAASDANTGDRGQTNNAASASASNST

[15] = target: T4, Acetylcholinesterase; experiment: Inhibition of recombinant human AChE using acetylthiocholine iodide as substrate by Ellman's method
[16] = target: Microtubule-associated protein tau (Homo sapiens) (UniProt P10636); experiment: Inhibition of tau aggregation (unknown origin) at 20 uM for 72 hrs by thioflavin S based fluorescence analysis
Microtubule-associated protein tau (Homo sapiens), sequence (P10636 whole entry): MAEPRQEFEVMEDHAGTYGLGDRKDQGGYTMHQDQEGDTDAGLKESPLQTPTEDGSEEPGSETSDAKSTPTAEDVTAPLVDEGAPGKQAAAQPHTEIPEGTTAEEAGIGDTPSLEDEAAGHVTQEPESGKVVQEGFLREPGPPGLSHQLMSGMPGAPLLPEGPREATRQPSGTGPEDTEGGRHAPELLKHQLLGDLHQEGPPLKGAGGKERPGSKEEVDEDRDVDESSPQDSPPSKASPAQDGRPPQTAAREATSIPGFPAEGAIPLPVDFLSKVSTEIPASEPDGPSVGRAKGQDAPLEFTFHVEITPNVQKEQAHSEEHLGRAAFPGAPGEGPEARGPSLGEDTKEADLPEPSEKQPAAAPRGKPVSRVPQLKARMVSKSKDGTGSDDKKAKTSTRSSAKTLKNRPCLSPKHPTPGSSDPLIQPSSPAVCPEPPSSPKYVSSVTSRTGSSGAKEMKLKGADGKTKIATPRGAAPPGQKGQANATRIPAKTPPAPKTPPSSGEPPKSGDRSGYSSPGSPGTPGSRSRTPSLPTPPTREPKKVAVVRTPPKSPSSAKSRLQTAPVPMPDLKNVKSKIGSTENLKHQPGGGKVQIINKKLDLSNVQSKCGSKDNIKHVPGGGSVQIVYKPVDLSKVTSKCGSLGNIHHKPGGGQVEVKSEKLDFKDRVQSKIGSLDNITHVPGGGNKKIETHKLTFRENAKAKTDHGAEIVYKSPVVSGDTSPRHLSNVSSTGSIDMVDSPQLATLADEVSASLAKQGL

[17] = Permeability of compound by PAMPA-BBB assay; type: ADME; details: read-out: permeability
[18] = target: T4, Acetylcholinesterase; experiment: Inhibition of recombinant human AChE using Amplex red, acetylthiocholine as substrate preincubated for 15 mins followed by substrate addition and measured after 30 mins by microplate fluorescence reader analysis
[19] = system: Rattus norvegicus; experiment: Antiinflammatory activity in carrageenan induced Sprague-Dawley rat acute inflammation model assessed as inhibition of paw edema at 50 mg/kg, po for 1 hr followed by carrageenan injection snd measured after 3 hrs relative to control; type: functional; set-up: scale not given: the % may be the effect or the level left; details: time 4 hrs
[20] = target: Beta-secretase 1 (Homo sapiens, UniProt P56817); experiment: Inhibition of recombinant human BACE-1 using MCA-SEVNLDAEFR-Ednp-KRR-NH2.3TFA as substrate incubated for 2 hrs by Varioskan-flash multimode plate reader analysis
[21] = system: Rattus norvegicus; experiment: Antiinflammatory activity in formalin induced Sprague-Dawley rat chronic inflammation model assessed as inhibition of paw edema at 50 mg/kg, po for 1 hr followed by formalin injection for 5 days relative to control; type: functional; set-up: scale not given: the % may be the effect or the level left; details: time 5 day
[22] = target: T5, Gamma-secretase (Homo sapiens) (UniProt Q96BI3+Q9NZ42+Q8WW43+P49768+Q92542+P49810); experiment: Inhibition of gamma secretase in human H4 cells expressing human wild type APP assessed as reduction in amyloid beta 1-42 level at 100 uM for 12 hrs by ELISA; type: cell-based
[23] = target: T5, Gamma-secretase (Homo sapiens); experiment: Inhibition of gamma secretase in human H4 cells expressing human wild type APP assessed as reduction in amyloid beta 1-40 level at 100 uM for 12 hrs by ELISA; type: cell-based
[24] = system: SK-N-MC; experiment: Antiproliferative activity against human SK-N-MC cells assessed as reduction in cell proliferation incubated for 72 hrs by MTT assay; type: functional, cell-based
[25] = system: HepG2; experiment: Cytotoxicity against human HepG2 cells assessed as reduction in cell viability for 24 hrs by MTT assay; type: functional, cell-based; details: HepG2, 24 h
[26] = target: T3, Cholinesterase; experiment: Inhibition of recombinant human BuChE using butyrylthiocholine iodide as substrate preincubated for 5 mins followed by substrate addition by Ellman's method
[27] = target: T4, Acetylcholinesterase; experiment: Inhibition of recombinant human AChE using acetylthiocholine iodide as substrate preincubated for 5 mins followed by substrate addition by Ellman's method
[28] = system: SH-SY5Y; experiment: Cytotoxicity against human SH-SY5Y cells assessed as reduction in cell viability for 24 hrs by MTT assay; type: functional, cell-based
[29] = target: Glutamate [NMDA] receptor; experiment: Inhibition of NMDA receptor (unknown origin); type: protein-complex assay, Homo sapiens
[30] = target: Glutamate receptor ionotropic AMPA (Homo sapiens, UniProt P42261+P42262+P42263+P48058); experiment: Inhibition of AMPA receptor (unknown origin); type: protein-complex assay
[31] = target: Cholinesterase (Equus caballus, UniProt P81908); experiment: Inhibition of equine serum BuChE using butyrylthiocholine iodide as substrate by Ellman's method
Cholinesterase (Equus caballus, UniProt P81908), sequence (P81908 whole entry): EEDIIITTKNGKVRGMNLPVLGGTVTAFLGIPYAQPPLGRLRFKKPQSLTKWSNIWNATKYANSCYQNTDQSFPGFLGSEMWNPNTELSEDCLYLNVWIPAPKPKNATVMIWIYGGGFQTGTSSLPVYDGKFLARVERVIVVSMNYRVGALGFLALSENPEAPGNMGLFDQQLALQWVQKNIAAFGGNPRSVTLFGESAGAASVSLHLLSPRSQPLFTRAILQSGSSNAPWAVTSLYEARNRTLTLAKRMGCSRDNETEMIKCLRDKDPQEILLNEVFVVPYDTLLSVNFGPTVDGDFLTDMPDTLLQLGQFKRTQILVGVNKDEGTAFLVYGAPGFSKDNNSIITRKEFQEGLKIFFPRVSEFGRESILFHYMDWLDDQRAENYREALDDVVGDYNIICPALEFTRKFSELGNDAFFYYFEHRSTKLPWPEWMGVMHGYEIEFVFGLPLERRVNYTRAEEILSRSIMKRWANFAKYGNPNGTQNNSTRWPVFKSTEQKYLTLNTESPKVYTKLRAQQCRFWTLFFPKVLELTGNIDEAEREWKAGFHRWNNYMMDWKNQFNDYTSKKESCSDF

Compound: CCCCCCCNC(=O)Oc1cccc(CN(C)CCCCCOc2ccc3[nH]c(=O)ccc3c2)c1
IC50 [1]: 0.83 µM
IC50 [2]: 0.39 µM

inhibition [3]: 96.9%
IC50 [4]: 8.06 µM
Compound: CCOC(=O)C(Cc1cn(-c2ccccc2)nn1)(Cc1cn(-c2ccccc2)nn1)NC(C)=O

Compound: CCN(CCCCOc1ccc(/C=C/C(=O)N2CCc3ccccc3C2)cc1OC)Cc1ccccc1
IC50 [5]: 12.1 µM
IC50 [6]: 8.6 µM
IC50 [7]: 8.9 µM
IC50 [8]: 6.3 µM
Activity [9]: 0.53 equiv

Compound: O=c1cc(/N=N/N=P(CCP(=N/N=N/c2cc(=O)oc3ccccc23)(c2ccccc2)c2ccccc2)(c2ccccc2)c2ccccc2)c2ccccc2o1
IC50 [10]: 441 µM
Ratio IC50 [11]: 3.81
IC50 [12]: 338 µM
IC50 [13]: 0.035 µM

Compound: CO[C@@H]1C=C[C@@]23c4cc5c(cc4CN(C[C@@H]2OC(=O)c2ccc([N+](=O)[O-])cc2)C3C1)OCO5 (stereo partly drawn)
inhibition [14]: 27%
IC50 [15]: 14.7 µM

inhibition [16]: 63.3%
Papp [17]: 8.7 ×10⁻⁶ cm/s
Compound: CC1=C[C@H]2c3c(O)cc(-c4cc5ccc(O)cc5o4)cc3O[C@@]3(c4ccc(O)c5c4OC(C)(C)C=C5)Oc4cc(O)ccc4[C@H](C1)[C@@H]23

Compound: C#CCOc1cccc(-c2cc(-c3ccc(OCCN4CCOCC4)cc3)nc(C)n2)c1
IC50 [18]: 0.00954 µM

IC50 [20]: 3 µM
Compound: Cc1cc2nc(-c3cnc(N)s3)c(-c3cnc(N)s3)nc2cc1C
Activity [19]: 69%
Activity [21]: 55%

inhibition [16]: 37.3%
Compound: CC1=C[C@H]2c3c(O)cc(-c4cc5ccc(O)cc5o4)cc3O[C@@]3(c4ccc(O)cc4O)Oc4cc(O)ccc4[C@H](C1)[C@@H]23

inhibition [22]: 88%
inhibition [23]: 26%
Compound: O=S(=O)(NC12CC3CC(CC(C3)C1)C2)C1CCCS1 (stereo not drawn)

IC50 [24]: 42.4 µM
Compound: O=C(N/N=C/c1ccccn1)c1ccc(C(=O)NC23CC4CC(CC(C4)C2)C3)cc1

Compound: COc1ccc2nc3c(c(N)c2c1)C1CC=CC(C3)C1 (stereo not drawn)
IC50 [25]: 14.9 µM
IC50 [26]: 3.76 µM
IC50 [27]: 2.63 µM
IC50 [28]: 17.8 µM

Compound: NCCCCCCNC1(c2ccccc2)CCCCC1
IC50 [29]: 0.24 µM
IC50 [30]: 1.7 µM

Compound: CCN1CCN(c2ccc(-c3nc4ccccc4[nH]3)cc2)CC1
IC50 [31]: 34.9 µM
IC50 [15]: 5.18 µM
